Read-outs that look alike come from different tables or passages of the source.
Legend:
[1] = tested on: Human lung cancer cell line A549; assay: MTT cell viability assay, A549; format: cell-based; settings: A549, MTT, 72 h, read-out: IC50 antiproliferative activity A549
Experimental: (§1) Cell viability was measured using the 3-(4,5-dimethylthiazol-2-yl)-2,5-diphenyltetrazolium bromide (MTT) assay and was expressed as a ratio to the absorbance value at 570 nm of the control cells.

[2] = tested on: Human liver cancer cell line HepG2; assay: MTT cell viability assay, HepG2; format: cell-based; settings: HepG2, MTT, 72 h, read-out: IC50 antiproliferative activity HepG2
Experimental: as §1

[3] = tested on: Human glioblastoma cell line U251; assay: MTT cell viability assay, U251; format: cell-based; settings: U-251, MTT, 72 h, read-out: IC50 antiproliferative activity U251
Experimental: as §1

[4] = tested on: Human glioma cell line LN229; assay: MTT cell viability assay, LN229; format: cell-based; settings: LN-229, MTT, 72 h, read-out: IC50 antiproliferative activity LN229
Experimental: as §1

[5] = tested on: all eight cell lines; assay: Antiproliferative activity, panel of eight cancer cell lines (summary); format: cell-based; settings: Homo sapiens; summary over the eight cancer cell lines of Table 2; read-out: IC50 values against all eight cell lines
Experimental: Cells (5 × 10^4) were seeded into 96-well plates and exposed to vehicle (PBS) or different concentrations of compounds for 72 h. Cell viability was measured using the 3-(4,5-dimethylthiazol-2-yl)-2,5-diphenyltetrazolium bromide (MTT) assay and was expressed as a ratio to the absorbance value at 570 nm of the control cells.
As DMC-HA was identified as a potent novel inhibitor for HDACs, its antiproliferative activities on a panel of cancer cell lines and normal cells were evaluated, including four glioma cell lines, and the results are shown in Table 2. Vorinostat and curcumin were also tested as positive controls. […].

[6] = Pharmacokinetic study in mice; format: in vivo, SD mice; settings: plasma; for Tmax: 10 mg/kg
Experimental: The animal studies were approved by the Institutional Animal Care and Used Committee. The pharmacokinetic study of DMC-HA was carried out with female SD mice. The compound (2.0 mM) was suspended in DMSO (10%) and Tween 80 (10%) in PBS (80%). A single dose of 1 mg/kg was administrated by intravenous injection (n = 3 mice), followed by blood collection via retro-orbital bleeding at 0.25, 0.5, 2.0, 4.0, 8.0, 12.0, and 24 h. Whole blood samples were added to a tube containing ethylenediaminetetraacetic acid (EDTA) and centrifuged. Plasma was collected and stored at −20°C. Compound standards were prepared with pooled plasma samples. Fifty microliters of thawed plasma and standards were added into wells of Ostro Pass-Through Sample Preparation Plate (Waters) for solid phase extraction. Acetonitrile (150 μl) containing internal standard was added and mixed by pipette. Next, clear sample solution was eluted by positive pressure processor under 60 psi for 5 min. The sample solution can be used directly for LC-MS/MS analysis.
The preliminary in vivo pharmacokinetic study for DMC-HA was performed in mice. SD mice were intravenously injected with 1 mg/kg DMC-HA or orally administrated with 10 mg/kg DMC-HA. Plasma samples were collected and analyzed with LC-MS/MS.

[7] = Plasma and brain distribution study; format: in vivo; settings: mice, single administration, i.v. 5 mg/kg or p.o. 10 mg/kg
From the text: Discovery of drugs for the treatment of GBM encounters formidable challenges to their ability to cross the blood–brain barrier (BBB) ([31]). Thus, we further investigated the distribution of DMC-HA to identify whether it has the ability to cross the BBB. […] In addition, stable and durable distribution of DMC-HA in the brain was observed after p.o. administration. Nevertheless, optimization for the balance among potency, selectivity, metabolic stability, and brain permeability in a single molecule was challenging. These preliminary results provide valuable information for further structure optimization of DMC-HA and a guidance for its following in vivo studies.
Figure 5 Concentrations of DMC-HA in plasma and brain over time following a single administration in mice. Left, i.v. 5 mg/kg; right, p.o. 10 mg/kg.

[8] = tested on: U87 tumor xenograft; settings: nude mice, 20 mg/kg once daily
From the text: Six-week-old BALB/c nude mice were purchased from Shanghai Experimental Animal Center of Chinese Academy of Science (Shanghai, China). All animal protocols were implemented according to the guidelines of the Association for Assessment and Accreditation of Laboratory Animal Care. U87 cells (3 × 10^6) were subcutaneously implanted into the right flank of mice. After 6 days of tumor growth, tumors grew to approximately 100 mm^3, and mice were randomly divided into three groups with nine animals in each group. […] The control group was intraperitoneally injected an equal volume of DMSO. Body weights and tumor volumes were measured every 2 days. After treatment, all of the mice were sacrificed, and the tumors were harvested, weighted, and photographed. The tumor volume was calculated according the formula: tumor volume = (length × width^2)/2.
U87 cells were subcutaneously inoculated into the right flank of mice.

[9] = molecular target: HDAC1 (Homo sapiens, UniProt Q13547); assay: HDACs inhibition assay, HDAC1
Chain of HDAC1 (Q13547 whole entry): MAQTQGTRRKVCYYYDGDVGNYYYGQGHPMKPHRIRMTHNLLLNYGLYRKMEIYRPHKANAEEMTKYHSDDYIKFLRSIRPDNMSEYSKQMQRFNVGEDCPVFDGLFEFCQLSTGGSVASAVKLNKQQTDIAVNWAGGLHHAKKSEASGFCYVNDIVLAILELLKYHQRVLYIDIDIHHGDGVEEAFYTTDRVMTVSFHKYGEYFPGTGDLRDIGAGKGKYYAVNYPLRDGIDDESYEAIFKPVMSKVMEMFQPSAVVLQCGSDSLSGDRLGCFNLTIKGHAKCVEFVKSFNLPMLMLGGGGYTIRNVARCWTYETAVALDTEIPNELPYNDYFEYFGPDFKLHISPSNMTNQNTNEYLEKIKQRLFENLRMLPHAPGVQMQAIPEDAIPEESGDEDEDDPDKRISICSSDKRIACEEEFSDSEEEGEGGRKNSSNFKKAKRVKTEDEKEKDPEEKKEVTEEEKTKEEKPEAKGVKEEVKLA
Experimental: (§2) The inhibition assays for HDACs were carried out according to standard protocols. […] The reaction was stopped by the addition of 45 μl of 100 mM HEPES (pH 7.5) and 0.08% sodium dodecyl sulfate (SDS). The substrate and the product were then separated electrophoretically using a LabChip 3000 system (Caliper Life Sciences, Hopkinton, MA) with blue laser excitation and green fluorescence detection.

[10] = molecular target: HDAC3 (Homo sapiens, UniProt O15379); assay: HDACs inhibition assay, HDAC3
Chain of HDAC3 (O15379 whole entry): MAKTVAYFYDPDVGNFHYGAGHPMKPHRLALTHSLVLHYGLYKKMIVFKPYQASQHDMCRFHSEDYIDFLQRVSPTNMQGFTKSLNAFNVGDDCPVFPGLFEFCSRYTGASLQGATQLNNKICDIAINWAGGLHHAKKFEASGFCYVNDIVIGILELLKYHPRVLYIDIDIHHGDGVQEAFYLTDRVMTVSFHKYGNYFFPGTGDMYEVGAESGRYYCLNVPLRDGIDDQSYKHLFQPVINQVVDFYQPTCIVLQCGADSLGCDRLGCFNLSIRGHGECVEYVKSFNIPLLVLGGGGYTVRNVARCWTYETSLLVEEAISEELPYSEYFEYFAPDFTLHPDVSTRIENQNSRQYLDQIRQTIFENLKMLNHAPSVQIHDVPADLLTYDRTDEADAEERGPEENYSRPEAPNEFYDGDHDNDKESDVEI
Chain of HDAC3 (Q9Y618 395-489 partner limits assumed): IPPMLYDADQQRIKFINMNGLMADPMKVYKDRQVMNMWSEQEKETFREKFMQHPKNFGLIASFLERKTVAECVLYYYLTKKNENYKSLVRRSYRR
Experimental: as §2

[11] = molecular target: HDAC6 (Homo sapiens, UniProt Q9UBN7); assay: HDACs inhibition assay, HDAC6
Chain of HDAC6 (Q9UBN7 whole entry): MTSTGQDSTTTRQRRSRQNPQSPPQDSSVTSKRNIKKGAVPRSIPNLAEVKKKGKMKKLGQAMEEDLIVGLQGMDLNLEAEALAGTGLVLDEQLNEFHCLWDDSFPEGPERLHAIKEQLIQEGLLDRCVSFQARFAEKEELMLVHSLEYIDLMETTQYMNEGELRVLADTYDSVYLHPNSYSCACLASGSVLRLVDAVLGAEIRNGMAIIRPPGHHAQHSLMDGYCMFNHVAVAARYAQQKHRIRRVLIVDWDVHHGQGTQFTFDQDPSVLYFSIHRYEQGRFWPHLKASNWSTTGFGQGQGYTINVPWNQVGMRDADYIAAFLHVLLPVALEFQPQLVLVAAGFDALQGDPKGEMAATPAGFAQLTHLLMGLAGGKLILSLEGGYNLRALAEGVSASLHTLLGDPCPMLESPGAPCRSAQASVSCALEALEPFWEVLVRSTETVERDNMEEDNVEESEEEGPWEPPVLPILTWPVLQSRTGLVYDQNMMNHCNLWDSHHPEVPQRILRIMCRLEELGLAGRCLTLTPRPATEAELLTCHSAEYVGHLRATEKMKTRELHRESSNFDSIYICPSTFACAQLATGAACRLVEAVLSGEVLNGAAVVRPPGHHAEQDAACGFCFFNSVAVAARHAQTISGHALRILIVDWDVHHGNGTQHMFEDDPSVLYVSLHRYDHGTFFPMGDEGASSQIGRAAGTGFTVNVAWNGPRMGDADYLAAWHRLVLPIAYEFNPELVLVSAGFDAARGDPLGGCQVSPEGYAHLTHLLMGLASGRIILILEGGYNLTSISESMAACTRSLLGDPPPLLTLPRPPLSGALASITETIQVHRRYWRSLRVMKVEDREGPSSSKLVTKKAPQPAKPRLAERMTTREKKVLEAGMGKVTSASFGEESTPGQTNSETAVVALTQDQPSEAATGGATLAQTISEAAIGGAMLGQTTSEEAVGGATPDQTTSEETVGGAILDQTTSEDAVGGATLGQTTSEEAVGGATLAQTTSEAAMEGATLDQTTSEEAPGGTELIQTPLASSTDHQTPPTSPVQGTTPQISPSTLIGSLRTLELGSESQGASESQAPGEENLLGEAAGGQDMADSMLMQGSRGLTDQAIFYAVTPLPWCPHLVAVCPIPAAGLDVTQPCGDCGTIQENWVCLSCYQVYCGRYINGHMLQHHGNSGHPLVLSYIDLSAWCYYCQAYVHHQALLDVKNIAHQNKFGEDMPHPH
Experimental: as §2

[12] = molecular target: HDAC11 (Homo sapiens, UniProt Q96DB2); assay: HDACs inhibition assay, HDAC11
Chain of HDAC11 (Q96DB2 whole entry): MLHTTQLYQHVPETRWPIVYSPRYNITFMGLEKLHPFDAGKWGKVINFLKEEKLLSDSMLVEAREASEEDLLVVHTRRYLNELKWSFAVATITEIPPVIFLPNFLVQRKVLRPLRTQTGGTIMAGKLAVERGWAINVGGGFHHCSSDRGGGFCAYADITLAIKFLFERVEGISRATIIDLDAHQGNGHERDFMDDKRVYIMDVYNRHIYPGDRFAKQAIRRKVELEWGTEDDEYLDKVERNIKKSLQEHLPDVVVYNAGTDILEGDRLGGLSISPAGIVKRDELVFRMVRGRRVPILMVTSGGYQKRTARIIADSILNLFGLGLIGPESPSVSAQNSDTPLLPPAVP
Experimental: as §2

[13] = female, SD, mouse, iv, i.v. 1 mg/kg
[14] = female, SD, mouse, po, p.o. 10 mg/kg

COc1cc(/C=C/C(=O)CC(=O)/C=C/c2ccc(/C=C/C(=O)NO)cc2)ccc1O [DMC-HA]
IC50 [1]: 5.33 ± 0.93 µM | IC50 [2]: 4.28 ± 0.52 µM | IC50 [3]: 2.99 ± 0.48 µM | IC50 [4]: 3.38 ± 0.29 µM | IC50 [5]: < 5.3 µM | AUC(0-inf) [6, 13]: 502 ng·h/mL | AUC(0-t) [6, 13]: 493 ng·h/mL | clearance [6, 13]: 30 mL/min/kg | half-life [6, 13]: 3.2 h | bioavailability ([6]; female, SD, mouse, oral, p.o. 10 mg/kg vs i.v. 1 mg/kg, read-out: F (oral bioavailability)): 40.2% | Tmax ([6]; female, SD, mouse, po, p.o. 10 mg/kg, read-out: Tmax): 0.67 h | Tmax ([6]; female, SD, mouse, po, p.o. 10 mg/kg, read-out: time of peak concentration (converted)): ~0.667 h | AUC(0-inf) [6, 14]: 2010 ng·h/mL | AUC(0-t) [6, 14]: 1980 ng·h/mL | Cmax [6, 14]: 1070 ng/mL | half-life [6, 14]: 4.1 h | Cl ([6]; p.o. 10 mg/kg): 145 mL/min/kg | peak concentration ([6]; p.o. 10 mg/kg): about 1.0 μg/ml | ability to cross the BBB [7]: can indeed penetrate the BBB | Kp ([7]; mouse, brain and plasma, other: intravenous and oral (i.v. and p.o. arms), over time, read-out: brain-to-plasma ratios): 0.08 to 0.23 | effects on the body weight [8]: no effects on the body weight | toxicity during the administration period [8]: no observable toxicity | tumor weight ([8]; compared with controls): significantly lower tumor weight | inhibition on the tumor volume ([8]; oral route / intraperitoneal, vs. control): 52.1% | IC50 [9]: 0.51 µM | IC50 [10]: 1.67 µM | IC50 [11]: 0.38 µM | IC50 [12]: > 10 µM

Reference: PMC8602566 (Frontiers in Oncology, 2021)
